# Where “and” joins values, the source holds several entries; their conditions need not be identical. Equal entries are not always repeated. Where two headings read alike, the source gives them in different places.
# Legend:
# P. falcipurum = details: rectal suppository; cited from earlier work
# malaria [1] = details: cited from earlier work
# [2] = cited from earlier work; for maximum plasma concentration by im route: in ng/mL
# [3] = cited from earlier work
# [4] = test system: multi-drug resistant P. yoelii nigeriensis; experiment: Blood schizontocidal activity in Swiss mice by oral route; type: in vivo, Plasmodium yoelii nigeriensis; details: oral in oil, 30 mg/kg × 5, mice 25 ± 1 g
# Method: Test Parasite: Multi-drug resistant Plasmodium yoeli nigerienes (Rodent malaria strian). The P. yoeli nigerienses is a multi-drug resistant strain which is resistant to high oral doses of chloroquine (128 mg/kg×4), amodiaquine (128 mg/kg×4), meperaine (128 mg/kg×4), mefloquine (128 mg/kg×4), quinine (400 mg/kg×4) and halofantrine (32 mg/kg×4). […].
# [5] = test system: multi-drug resistant strain of P. yoelii nigeriensis; experiment: Blood schizontocidal activity in Swiss mice and baby mice by intramuscular route; type: in vivo, Plasmodium yoelii nigeriensis; details: day 30
# Method: Test Parasite: Multi-drug resistant Plasmodium yoeli nigerienes (Rodent malaria strian). The P. yoeli nigerienses is a multi-drug resistant strain which is resistant to high oral doses of chloroquine (128 mg/kg×4), amodiaquine (128 mg/kg×4), meperaine (128 mg/kg×4), mefloquine (128 mg/kg×4), quinine (400 mg/kg×4) and halofantrine (32 mg/kg×4). […]. […] The tail blood smears of the mice were examined periodically after Giemsa staining upto 30 days post-infection.
# Drug treatment was started on day 0 (ie day of infection). Mice showing negative blood slide upto day 30 were considered as cured.
# [6] = oral artesunate; 95/Cl 387-9410, range 79-1394; cited from earlier work
# [7] = cited from earlier work; remark: listed apart in the source
# [8] = cited from earlier work; remark: listed apart in the source
# [9] = oral tablets, 60 mg dose, cited from earlier work
# [10] = test system: multi-drug resistant P. yoelii nigeriensis; experiment: Blood schizontocidal activity in Swiss mice by rectal route; type: in vivo, Plasmodium yoelii nigeriensis; details: for Cure-rate Day 30 (%) / Parasitaemia % Day 5 / Parasitaemia % Day 7: in oil; for Parasitaemia % Day 5 / Parasitaemia % Day 7: 8 mice
# Method: Test Parasite: Multi-drug resistant Plasmodium yoeli nigerienes (Rodent malaria strian). The P. yoeli nigerienses is a multi-drug resistant strain which is resistant to high oral doses of chloroquine (128 mg/kg×4), amodiaquine (128 mg/kg×4), meperaine (128 mg/kg×4), mefloquine (128 mg/kg×4), quinine (400 mg/kg×4) and halofantrine (32 mg/kg×4). […]. […] For higher doses (15 and 20 mg/kg) the drug was given in divided doses by rectal route. The tail blood smears of the mice were examined periodically after Giemsa staining upto 30 days post-infections.
# Drug is dissolved in sterile ground nut oil for adminisitration.
# Safety in healthy mice = type: in vivo; details: 30 mg/kg DHA × 5, 20 ± 1 g mice
# [11] = rabbit, in vivo; cited from earlier work
# [12] = dog, in vivo; cited from earlier work
# malaria [13] = details: cited from earlier work; remark: listed apart in the source
# [14] = aqueous solution at pH 7-8; cited from earlier work
# [15] = following oral artesunate administration
# [16] = 5 mg/kg × 7, Swiss mice 20 ± 1 g
# [17] = 20 mg/kg × 7, Swiss mice 20 ± 1 g
smiles,measurement,setting,value
C[C@@H]1CC[C@H]2[C@@H](C)C(=O)O[C@@H]3O[C@@]4(C)CC[C@@H]1[C@]32OO4 [artemisinin],recovery from coma,P. falcipurum,24 (18-30) h
same,cure rate,malaria [1]; high doses upto 5.0 g,55%
CCO[C@H]1O[C@@H]2O[C@@]3(C)CC[C@H]4[C@H](C)CC[C@@H]([C@H]1C)[C@@]24OO3 [arteether],maximum plasma concentration by im route,[2]; rats,160±12.4
same,Distribution half life,"[2]; rats, single IM dose",20.4 ± 4.2 min
same,Mean absorption time,"[2]; rats, single IM dose",0.25 ± 0.06 h
same,Time of maximum plasma Concentration,"[2]; rats, single IM dose",41.4 ± 14.7 min
same,maximum plasma concentration,"[2]; rats, single IM dose",160.7 ± 12.4 ng/mL
same,Absorption 0-8 h,"[2]; rats, single IM dose, listed as AE",34.0±9.6%
same,Elimination half life,"[3]; oral, rats",107 ± 28.2 min
same,area under plasma concentration time curve,"[3]; oral, rats",298±68 ngh ml^−1
same,maximum plasma concentration,"[3]; oral, rats",324 ± 10 ng/mL
"C[C@H]1[C@@H](O)O[C@@H]2O[C@@]3(C)CC[C@H]4[C@H](C)CC[C@@H]1[C@@]24OO3 [DHA, Dihydroartemisinin]",Cure rate (%) Day 30,[4],100%
same,Cure rate (%),"[5]; Expt. I, IM in oil, 5 mg/kg × 5, mice 20 ± 1 g",100% (8/8)
same,Cure rate (%),"[5]; Expt. II, im in oil, 5 mg/kg × 5, mice 20 ± 1 g",100% (8/8)
same,Cure rate (%),"[5]; Expt. II, im in oil, 10 mg/kg × 5, mice 20 ± 1 g",100% (8/8)
same,Cure rate (%),"[5]; Expt. III, im in oil, 5 mg/kg × 5, baby mice 12 ± 1 g",100% (9/9)
same,peak plasma concentration of DHA,[6],664 ng of DHA/ml
same,DHA level compared to that of artesunate,[7]; [15],5 fold
same,maximum plasma level,[7]; [15],0.57 ± 0.18 µg/mL
same,DHA activity AUC,[8]; im route,3445 n Mlo l^−1 h
same,duration of activity due to DHA,[8]; im route,over 30 h
same,duration of effective level,[8]; oral dose,≤ 10 h
same,maximum plasma concentration by im route,[2]; rats,1579±443
same,Absorption 0-8 h,"[2]; rats, single IM dose",85.4±12.1% and 85.4%
same,Area under plasma concentration,"[2]; rats, single IM dose",2720 ng·h/mL
same,Elimination half life,"[2]; rats, single IM dose",266 ± 16.2 min
same,Mean absorption time,"[2]; rats, single IM dose",0.21 h
same,Time of maximum plasma Concentration,"[2]; rats, single IM dose",17.5 min
same,maximum plasma concentration,"[2]; rats, single IM dose",1579 ng/mL
same,Elimination half life,"[3]; oral, rats",296 ± 43.8 min
same,area under plasma concentration time curve,"[3]; oral, rats",9615±56 ngh ml^−1
same,peak plasma levels of dihydroartemisinin,[9]; four subjects,0.26 to 0.71 µg/mL
same,tolerability,[9]; six cases,"well tolerated in 2 subjects while 4 subjects experienced mild headache, nausea or vomiting"
same,complete excretion by,[9],≤ 6 h
same,elimination half-life,[9],42.6 to 87 min
same,number of mice negative (-ve) Day 5,"[10]; 5 mg/kg × 7, of 8 mice",(8) 4-ve
same,number of mice negative (-ve) Day 7,"[10]; 5 mg/kg × 7, of 8 mice",(8) 4-ve
same,Cure-rate Day 30 (%),[10]; [16],25%
same,Parasitaemia % Day 5,[10]; [16],0.83 ± 1.31%
same,Parasitaemia % Day 7,[10]; [16],1.12 ± 1.55%
same,Cure-rate Day 30 (%),[10]; [17],87%
same,Parasitaemia % Day 5,[10]; [17],0.0%
same,Parasitaemia % Day 7,[10]; [17],0.0%
same,Safety in Healthy mice,Safety in healthy mice,Safe 8/8
CO[C@H]1O[C@@H]2O[C@@]3(C)CC[C@H]4[C@H](C)CC[C@@H]([C@H]1C)[C@@]24OO3 [artemether],maximum plasma concentration by im route,[2]; rats,692±234
same,Absorption 0-8 h,"[2]; rats, single IM dose",54.2±25.9% and 54.3%
same,Area under plasma concentration,"[2]; rats, single IM dose",1010 ng·h/mL
same,Distribution half life,"[2]; rats, single IM dose",13.8 min
same,Elimination half life,"[2]; rats, single IM dose",107 ± 48 min
same,Mean absorption time,"[2]; rats, single IM dose",0.14 h
same,Time of maximum plasma Concentration,"[2]; rats, single IM dose",28.8 min
same,maximum plasma concentration,"[2]; rats, single IM dose",692 ng/mL
same,Elimination half life,"[3]; oral, rats",122 ± 10.8 min
same,area under plasma concentration time curve,"[3]; oral, rats",306±52 ngh ml^−1
same,maximum plasma concentration,"[3]; oral, rats",381 ± 113 ng/mL
C[C@H]1[C@H](OC(=O)CCC(=O)O)O[C@@H]2O[C@@]3(C)CC[C@H]4[C@H](C)CC[C@@H]1[C@@]24OO3 [artesunate],maximum plasma level,"[7]; in vivo, po",0.12 ± 0.11 µg/mL
same,elimination half-life,[11],2 to 4 min
same,Distribution half life,"[2]; rat, in vivo, im",9 ± 3.6 min
same,Elimination half life,"[2]; rat, in vivo, im",32.4 ± 8.4 min
same,Time of maximum plasma Concentration,"[2]; rat, in vivo",15.0 ± 4.1 min
same,Elimination half life,"[3]; rat, in vivo, po",80.4 ± 1560 min
same,area under plasma concentration time curve,"[3]; rat, in vivo, po",217±34 ngh ml^−1
same,maximum plasma concentration,"[3]; rat, in vivo, po",208 ± 25 ng/mL
same,elimination half-life,[12],27 min
same,times more potent than artemisinin,malaria [13],3.2 times
same,cure rate,malaria [1]; upto 750 mg,70-90%
C[C@H]1[C@H](OC(=O)CCC(=O)[O-])O[C@@H]2O[C@@]3(C)CC[C@H]4[C@H](C)CC[C@@H]1[C@@]24OO3.[Na+] [sodium artesunate],time of hydrolysis to DHA,[14],≤ 1 h

# Reference: patent US6362219B1 (Council of Scientific and Industrial Research, priority 1999, dated 2002)
